Data from patent publication US9399759B2, “Method for producing neurospheres” (Keio University, priority 2008, dated 2016).

Tests used:
human fibroblasts = experiment: Effect of LIF, cAMP and Y27632 on number of human neurospheres formed (Example 2); assay type: cell-based; conditions: media with cAMP in place of or in addition to LIF, or cAMP, FIG. 4B
Description: (§1) The dedifferentiation factor-introduced fibroblasts cultured as above were dissociated by washing with 0.25% trypsin EDTA, resuspended in 10 ml of DMEM/F-12 serum-free medium (1:1, Invitrogen; containing 0.6% D-glucose, 5 mM HEPES, 3 mM NaHCO3, 2 mM glutamine, 25 ug/ml insulin, 100 ug/ml transferrin, 20 nM progesterone, 60 uM putrescine and 30 nM sodium selenate) supplemented with LIF (recombinant human LIF; Chemi-Con, 100 U/ml) and FGF (PeproTech, 20 ng/ml) at the density of 50 cells/ul, seeded in bacterial plastic culture dishes, and cultured in suspension under the conditions of 37° C. and 5% CO2 with exchanging the culture media every 14 days. On Day 3 and Day 20 during the suspension culture, the states of the cells were observed.
In the case of human fibroblasts, the culture media were supplemented with cAMP in place of or in addition to LIF or with cAMP, LIF and a ROCK inhibitor Y27632, and the number of the neurospheres obtained from 250000 cells was counted.

[1] = system: dedifferentiation factor-introduced fibroblasts; experiment: Effect of cell death inhibitors on induction of differentiation into mouse neurospheres (Example 2); assay type: cell-based; conditions: Day 20 of the culture, FIG. 4A
Description: as §1
In order to examine the improvement of the efficiency for the induction of differentiation into neurospheres by cell death inhibitors of N-acetyl-L-cysteine (NAC) and 8-chlorophenylthio (pCPT-cAMP), a membrane-permeable analog of cAMP, media supplemented with either or both of 1 mM of NAC(Sigma) and 100 uM of pCPT-cAMP (Sigma) were used in the suspension culture as described in Example 1. Other procedures were followed in the same way as described in Example 1, and numbers of neurospheres on Day 20 of the culture were counted.

Compound | effect on neurosphere formation (number of neurospheres obtained from 250000 cells) (human fibroblasts) | increase of number of neurospheres per 10 ml of the medium as compared to Control Group ([1]; only pCPT-cAMP added, 100 uM, adult mouse fibroblasts) | number of neurospheres as compared to the Control Group ([1]; only NAC added, 1 mM)
C[C@@H](N)[C@H]1CC[C@H](C(=O)Nc2ccncc2)CC1 [Y27632] | no effect |  | 
Nc1ncnc2c1nc(Sc1ccc(Cl)cc1)n2[C@@H]1O[C@@H]2COP(=O)([O-])O[C@H]2[C@H]1O.[Na+] [pCPT-cAMP, 8-chlorophenylthio (pCPT-cAMP)] | additive effect | over 100 fold | 
LIF: recombinant human LIF; Chemi-Con; growth factor added to the medium | additive effect |  | 
CC(=O)N[C@@H](CS)C(=O)O [NAC, N-acetyl-L-cysteine] |  |  | no difference was observed
